Measurements: ChEMBL document CHEMBL2074543, “Interactions of cationic drugs and cardiac glycosides at the hepatic uptake level: studies in the rat in vivo, isolated perfused rat liver, isolated rat hepatocytes and oocytes expressing oatp2” (Arch Pharm Res, 2002)

Biological target: T1, Solute carrier organic anion transporter family member 1A4 (Rattus norvegicus, UniProt O35913)
T1 sequence (O35913 whole entry): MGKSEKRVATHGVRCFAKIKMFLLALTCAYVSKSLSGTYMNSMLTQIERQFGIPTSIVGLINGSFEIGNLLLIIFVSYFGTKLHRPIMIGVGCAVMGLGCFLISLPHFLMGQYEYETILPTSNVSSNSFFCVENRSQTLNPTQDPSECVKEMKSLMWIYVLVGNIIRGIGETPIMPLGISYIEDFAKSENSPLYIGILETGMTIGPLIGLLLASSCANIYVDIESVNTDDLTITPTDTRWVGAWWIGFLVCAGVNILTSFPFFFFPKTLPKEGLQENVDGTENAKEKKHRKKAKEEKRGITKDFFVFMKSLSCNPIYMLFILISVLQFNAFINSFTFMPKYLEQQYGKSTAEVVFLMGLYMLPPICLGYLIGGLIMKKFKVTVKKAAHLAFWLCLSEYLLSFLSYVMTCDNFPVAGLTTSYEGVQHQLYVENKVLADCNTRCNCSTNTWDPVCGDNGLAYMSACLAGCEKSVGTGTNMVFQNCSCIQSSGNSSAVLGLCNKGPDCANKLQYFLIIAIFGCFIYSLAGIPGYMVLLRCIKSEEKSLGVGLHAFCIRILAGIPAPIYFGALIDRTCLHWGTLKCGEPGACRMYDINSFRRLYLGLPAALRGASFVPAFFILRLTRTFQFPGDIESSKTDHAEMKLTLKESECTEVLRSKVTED
Assay: TP_TRANSPORTER: inhibition of Rocuronium uptake in Xenopus laevis oocytes
Format: functional, cell-based
Conditions: oocyte

| Structure (SMILES) | Activity |
| --- | --- |
| CC[N+](C)(CC)CCNC(=O)c1ccc(N=[N+]=[N-])cc1.[I-] [AZIDOPROCAINAMIDE METHOIODIDE] | is not an inhibitor [-] |
| CCCC[N+](C)(CCCC)CCCC [TRIBUTYLMETHYLAMMONIUM] | is not an inhibitor [-] |
